Literature values as cited in patent US20030175329A1, “Semisolid topical hormonal compositions and methods for treatment” (Cellegy Pharmaceuticals, Inc., priority 2001, published 2003).

Experiments:
healthy males = conditions: 200 mg IM weekly
[1] = 6 months
hypogonadal males = conditions: oral doses for at least 60 days; 23 hypogonadal males

## C[C@]12CC[C@H]3[C@@H](CCC4=CC(=O)CC[C@@]43C)[C@@H]1CC[C@@H]2O [Testosterone, testosterone]
Following IM injection
  dose excreted in urine as glucuronide and sulfate conjugates of testosterone and its metabolites: about 90%
In vivo
  excreted mostly unconjugated in the feces: About 6%

## CCCCCCC(=O)O[C@H]1CC[C@H]2[C@@H]3CCC4=CC(=O)CC[C@]4(C)[C@H]3CC[C@]12C [testosterone enanthate]
Healthy males
  decrease of high-density lipoprotein cholesterol: 14-18%
[1]
  serum BT levels maintained within the normal range throughout the dosing interval: 39%
  serum DHT levels maintained within the normal range throughout the dosing interval: 70%
  serum E2 levels maintained within the normal range throughout the dosing interval: 35%
  serum T levels maintained within the normal range throughout the dosing interval: 72%

## CCCCCCCCCCC(=O)O[C@H]1CC[C@H]2[C@@H]3CCC4=CC(=O)CC[C@]4(C)[C@H]3CC[C@]12C [testosterone undecanoate]
Hypogonadal males
  men with measurable improvement in sexual attitudes and performance: 61%
